From the NIST ThermoML archive (doi:10.1016/j.jct.2016.03.025)
± gives the expanded uncertainty stated by the source.

Experiments:
[1] = 293.15 K; 101.33 kPa; Liquid; Vibrating tube method
[2] = refractive index (Na D-line) (dimensionless); settings: 293.15 K; 101.33 kPa; Liquid; Standard Abbe refractometry
[3] = refractive index (Na D-line) (dimensionless); wn = mass fraction of the nth substance listed; settings: 293.15 K; 101.3 kPa; Liquid; Standard Abbe refractometry; w1 = 0.85
[4] = wn = mass fraction of the nth substance listed; settings: 293.15 K; 101.3 kPa; Liquid; Vibrating tube method; w1 = 0.85

mass density [1] | refractive index [2] | refractive index [3] | mass density [4] | Compound
970.1 ± 1.2 kg/m3 | 1.4425 ± 0.0011 |  |  | CC(=O)OC1CCCCC1 [cyclohexyl ethanoate]
873.3 ± 1.2 kg/m3 | 1.4096 ± 0.0011 |  |  | CCCCCCOC(C)=O [hexyl ethanoate]
 |  | 1.4345 ± 0.001 | 1682.8 ± 1 kg/m3 | O=P(O)(O)O [phosphoric acid] + O
998.3 ± 1 kg/m3 | 1.333 ± 0.001 |  |  | O [water]
